Broadly, the ΔTm is the shift of the melting midpoint relative to a reference.

Holding throughout (assay): CD melting at 260 nm
The test system of test [1] is AsGq-4625 (DNA, G4, strand 2: 2'-OMe at 1-5 and 16-20 (text b19; Table S1 footnote says 2'-modification with hydroxy group); phosphorothioate at all linkages) GGTGGTGGTGGTTGTGGTGGTGGTGGAACGGAGGCTGGGAT/AAGGCATCCCAGCCTCCGUU
The settings on record: K+ 40 mM, Mg2+ from TAMg buffer (0.04×), 2% DMF, 4 μM ZnPc, 16 μM DNA, derived from two Tm (52.3, 53.1).

In test [2] the test system is AsGq (G-quadruplex of As4625') (DNA, G4) GGTGGTGGTGGTTGTGGTGGTGGTGGAACGGAGGCTGGGAT
The settings on record: K+ 40 mM, Mg2+ from TAMg buffer (0.04×), 2% DMF, 4 μM ZnPc, 16 μM DNA, derived from two Tm (53.0, 54.6).

Test [3] relates to As1411 (DNA, G4) GGTGGTGGTGGTTGTGGTGGTGGTGG
The settings on record: K+ 40 mM, Mg2+ from TAMg buffer (0.04×), 2% DMF, 4 μM ZnPc, 16 μM DNA, derived from two Tm (59.8, 61.7).

Consider `[Zn+2].c1ccc2c(c1)-c1nc3nc(nc4[n-]c(nc5[n-]c(nc-2n1)c1ccccc51)c1ccccc41)-c1ccccc1-3`, for which the ΔTm in test [1] worked out at 0.8 °C; in test [2] it was 1.6 °C; in test [3], 1.9 °C.

These data come from PMC11475320 (2024).
